Reference: patent EP0397025B1, “[2-(2-pyridyl)ethyl]-methylamine salts” (PRODOTTI FORMENTI S.r.l., priority 1989, dated 1990)
Where a name gives a salt, the structure may show the parent alone. Read-outs that look alike come from different tables or passages of the source.

Assays:
gastric mucosa = assay: Effect on gastric erosions (Adami index); assay type: in vivo; conditions: for N^o GASTRIC EROSIONS / SEVERITY: Adami index
Experimental: A comparison test between betahistine hydrochloride and betahistine fumarate was carried out, evaluating the toxicity (LD₅₀) and the effect on gastric erosions, at equimolar doses.
Admnistration volume = 15 ml/kg Evaluation of the stomach conditions = 1h after administration according to Adami index.

[1] = Bioavailability test on rats; conditions: rat, in vivo
Experimental: The AUCs, in the time 0-3 hours, for betahistine fumarate and betahistine dihydrochloride evidence no significant differences (8.2 vs 7.6 h.µg/ml, respectively).

[2] = pH of the administered treatment; assay type: physicochemical; conditions: treatment as administered in the gastric erosion test
[3] = Partition coefficient octanol/buffer; assay type: physicochemical; conditions: for logD: octanol/buffer, pH 9, octanol/buffer pH = 9.0
Solubility = assay type: physicochemical
[4] = 20 mmoles/kg, administration volume 15 ml/kg, 1h after administration, dihydrochloride
[5] = 20 mmoles/kg, administration volume 15 ml/kg, 1h after administration

In the case of `CNCCc1ccccn1` [BETAHISTINE DIHYDROCHLORIDE, betahistine dihydrochloride, reference compound], the “N^o GASTRIC EROSIONS” value (gastric mucosa; [4]) is reported as 7.92±1.26, the SEVERITY (gastric mucosa; [4]) is reported as 3.85±0.35 and the “% ANIMALS WITH EROSIONS: serious erosions” value (gastric mucosa; [4]) is reported as 92.32% serious erosions. The AUC [1] was 7600 ng·h/mL, the bioavailability [1] was “substantially the same bioavailability” and the pH ([2]; dihydrochloride) was “BETAHISTINE DIHYDROCHLORIDE pH=1.6”.

In the case of `CNCCc1ccccn1` [BETAHISTINE FUMARATE, Betahistine Fumarate], the “% ANIMALS WITH EROSIONS: diffused bleeding” value (gastric mucosa; [5]) is reported as 20%, the “% ANIMALS WITH EROSIONS: serious erosions” value (gastric mucosa; [5]) is reported as 10% and the “N^o GASTRIC EROSIONS” value (gastric mucosa; [5]) is reported as 0.3±0.3. The SEVERITY (gastric mucosa; [5]) was 0.6±0.31, the “effect on gastric erosions” value (gastric mucosa; equimolar doses, compared with the hydrochloride) was “markedly improved” and the logD ([3]; read-out: Partition coefficient P (converted)) was -0.904. The logD ([3]; read-out: logP) was 0.904, the “plasmatic curve peak after the administration” value [1] was 15 min and the AUC at 3 h ([1]; rats, 0-3 hours, read-out: AUCs, in the time 0-3 hours) was 8200 ng·h/mL. The Solubility in acetone (Solubility; acetone) was “poorly soluble”, the “Solubility in acid aqueous solutions” value (Solubility; acid aqueous solutions) was “soluble” and the Solubility in chloroform (Solubility; chloroform) was “almost unsoluble”. For the same molecule, the Solubility in ethanol (Solubility; ethanol) was “soluble”, the Solubility in methanol (Solubility; methanol) was “soluble” and the Solubility in water (Solubility; water) was “soluble”. The pH [2] was “BETAHISTINE FUMARATE pH = 4.19”.

With `CNCCc1ccccn1` [BETAHISTINE, [2-(2-Pyridyl)ethyl]-methylamine] the “Partition coefficient P” value ([3]; octanol/buffer pH = 9.0) was 0.147.
